Test results: the METLIN SMRT retention time set (Domingo-Almenara et al. 2019)

Experiment: gradient 5% acetonitrile 3 min, to 50% in 2 min, to 85% in 15 min, held 3 min, 100 µL/min
Conditions: column: Zorbax Extend-C18 2.1 x 50 mm; eluents: water / acetonitrile, 0.1% formic acid
In short: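 Using water and acetonitrile that each contained 0.1% formic acid, mixtures of ~100 pure standards were separated at 100 μL/min on a Zorbax Extend-C18 column (2.1 × 50 mm, 1.8 μm). The HPLC fed a quadrupole time-of-flight mass spectrometer working in positive and negative ionization mode, with dead and dwell volumes of 40 μL and 900 μL. Data were acquired over 3 months. Retention time was read from computationally picked adduct peaks after manual inspection of each.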

| Compound | RP-LC retention time [s] |
| --- | --- |
| O=S(=O)(c1ccc(Cl)cc1)c1nc(-c2ccco2)oc1NCCCn1ccnc1 | 597 |
| CNC(=O)N1CCCC(c2nc(C(C)C)no2)CCNC(=O)CC1 (stereo unspecified) | 606 |
| Cc1nn(C(C)C(=O)NC2CCCCC2)c(=O)c2nn(-c3ccccc3)c(C)c12 (stereo unspecified) | 879 |
| O=C(COc1ccc2c(c1)OCO2)N1CCN(c2cc(N3CCCCC3)ncn2)CC1 | 587 |
| O=C(Nc1nnc(C2=COCCO2)o1)c1cc2cc([N+](=O)[O-])ccc2s1 | 759 |
| CC(C)CCNC(=O)c1cn2ccccc2n1 | 656 |
| COc1cc(C2=NN(C(C)=O)C(c3cccnc3)O2)cc(OC)c1OC (stereo unspecified) | 701 |
| CCn1c(C)c(C(=O)CN(CC2CCCO2)C(=O)c2cccc(F)c2)c(C)c1C(=O)OC (stereo unspecified) | 896 |
| CCn1cc(CCNS(=O)(=O)CC)c2cccnc21 | 630 |
| c1cc(-c2nc(-c3ccc(OC4CNC4)cc3)no2)ccn1 | 604 |
| O=[N+]([O-])c1cnc(Sc2ccncn2)s1 | 843 |
| NC(=O)C1CCN(c2oc(-c3ccco3)nc2S(=O)(=O)c2ccccc2)CC1 | 652 |
| Cc1ccc(NC(=O)N2CCC(n3cnnc3C3CC3)C2)cc1C (stereo unspecified) | 665 |
| O=C(NCc1ccc2c(c1)OCO2)c1ccc2c(c1)NC(=O)C1CCCCN21 (stereo unspecified) | 765 |
| CCCOc1ccc(-c2csc(NC(=O)c3sc(C)nc3C)n2)cc1 | 1080 |
| Cc1[nH]c(=O)[nH]c(=O)c1S(=O)(=O)N1CCCC1 | 583 |
| Cn1c(C2CCN(C(=O)Nc3ccc(Br)cc3F)CC2)cc(=O)n2nccc12 | 694 |
| COc1ccc(-c2noc(C3CC(=O)N(c4ccc5c(c4)OCO5)C3)n2)cc1 (stereo unspecified) | 881 |
| CCN1C(=O)C2(CCN(C(=O)CC(C)C)CC2)c2ccccc21 | 818 |
| CCOC(=O)c1sc(NC(=O)COc2ccccc2Br)nc1C | 1050 |
| CCOc1ccc(CCNC(=O)c2c(C)oc3c2C2=NCCN2C=N3)cc1OCC | 651 |
| CC(C)n1cnc(S(=O)(=O)N2CCCC(C(=O)Nc3cccc(CN4CCCC4)c3)C2)c1 (stereo unspecified) | 627 |
| O=C(Cc1ccc(NC(=O)Nc2ccc3c(c2)OCO3)cc1)NCC(F)(F)F | 716 |
| CC(=O)N1CCc2cc(C)c(S(=O)(=O)NC(C)C)cc21 | 740 |
| CC1Oc2ccc(-c3csc(NC(=O)c4ccc(Br)cc4)n3)cc2NC1=O (stereo unspecified) | 990 |

| Compound | RP-LC retention time [s] |
| --- | --- |
| Cc1cccc(C2CC(=O)c3cnc(N4CCN(c5ccccn5)CC4)nc3C2)c1 (stereo unspecified) | 737 |
| O=C(C1CCN(S(=O)(=O)c2cc(-c3noc(C4CC4)n3)cs2)CC1)N1CCc2ccccc21 | 1070 |
| Cc1oc2ncnc(N3CCOCC3)c2c1C(=O)N1CCCc2ccccc21 | 790 |
| CCC1CN(C(=O)N2CCC(C(=O)NCCN3CCCC3)CC2)c2cc(C)ccc2O1 (stereo unspecified) | 649 |
| CCn1cnc2c1CN(S(=O)(=O)c1cccc(C#N)c1)CC2 | 590 |
| O=C(NCCCN1CCCCC1)C1CN(S(=O)(=O)c2cccnc2)CC12CCCCC2 (stereo unspecified) | 573 |
| CC1CCN(c2cc(N3CCN(C)CC3)ccc2NC(=O)c2cc(C#N)c[nH]2)CC1 | 595 |
| Cc1ncoc1C(=O)N1CCC(c2noc(-c3ccncc3)n2)C1 (stereo unspecified) | 642 |
| Cc1cccn2cc(C(=O)NCc3cc(F)cc(F)c3)nc12 | 668 |
| CCNc1cc(N2CCCC(CCC(=O)N(C)CCc3ccccn3)C2)ncn1 (stereo unspecified) | 556 |
| CCN(CC)C(=O)Cn1c(C2CC(=O)N(C3CCCC3)C2)nc2ccccc21 (stereo unspecified) | 657 |
| COCCCNC(=O)NCc1cccnc1OC | 594 |
| CC(=O)OC1CCN(C(=O)NC(C)(C)C)CC1 | 696 |
| CCC(=O)N1CCN(c2nc3c(s2)CC(C(=O)NCC(C)C)CC3)CC1 (stereo unspecified) | 534 |
| CCCCNC(=O)C1(c2ccc(NC(=O)C(C)C)cc2)CCCCC1 | 935 |
| COc1ccc(OC)c(NC(=O)Cn2c(C(F)(F)F)nc3cc4c(cc32)OCCO4)c1 | 881 |
| Cc1ccc(C)c(-c2csc(Nc3ccc(Cl)cc3)n2)c1 | 1340 |
| CC12COC3(C(=O)Nc4ccc(F)cc4)CC1CCC32C (stereo unspecified) | 1030 |
| CCOCC(=O)N1CC(F)(F)C[C@H]1c1nc(COC)no1 | 675 |
| CCN1C(=O)NC(c2ccc(C)cc2C)C2=C1CN(CCC(=O)N1CCCC1)C2=O (stereo unspecified) | 623 |
| CCOC(=O)Cc1csc(NC(=O)C2CCN(c3cc(-n4ccnc4)ncn3)CC2)n1 | 576 |
| CC(C)NC(=O)C1CCCN(C(=O)Nc2ccc(S(=O)(=O)N3CCCCCC3)s2)C1 (stereo unspecified) | 827 |
| COCCC1CCOC2(CCN(C(=O)C3CC3)CC2)C1 (stereo unspecified) | 710 |
| CC(C)c1ccc(Sc2ccc(N3CCC(C(=O)NCCN(C)C)CC3)nn2)cc1 | 658 |
| Cc1ccnc(N2CCC(C(=O)NCCCN3CCCCCC3)CC2)n1 | 556 |

Now from value to molecule:

| RP-LC retention time [s] | Compound |
| --- | --- |
| 802 | Cc1noc(-c2cc(=O)n(CC(=O)NCc3ccc4c(c3)OCO4)c3ccccc23)n1 |
| 878 | O=S(=O)(NCC(c1ccccc1)S(=O)(=O)c1cccs1)c1cccs1 (stereo unspecified) |
| 1350 | CCn1cc(-c2nc(C(=O)Nc3ccc(F)cc3Cl)cs2)c2cccnc21 |
| 1100 | COC(=O)c1ccc(CSc2nccc3c(OC)cccc23)o1 |
| 633 | COc1cc(OC)c(NC(=O)C2CCCN(C(=O)c3cc(-c4ccncc4)n[nH]3)C2)cc1Cl (stereo unspecified) |
| 869 | CC1(C)C(=O)N(CC(=O)Nc2ccccc2F)c2ccccc21 |
| 593 | Cc1ccc(NC(=O)N2CCCC2c2nc(-c3ccccc3C)no2)cc1C (stereo unspecified) |
| 561 | O=C(CCc1c(-c2ccccc2)nc2ccccn12)NC1CC1 |
| 800 | CCn1c(=O)c(C(=O)NCc2ccccc2OC)nc2cccnc21 |
| 657 | O=C1Cc2cc(NC(=O)NCCCc3ccccc3)ccc2N1 |
| 824 | O=C(Cc1cc(-c2ccc(F)cc2)on1)NCCc1c[nH]c2ccccc12 |
| 855 | Cc1ccc(C)c(C(=O)N2CCC3(CC2)N=C(c2ccccc2)NO3)c1 |
| 773 | CCOc1ccc(N2CCn3c2nn(CC(=O)c2ccc(OC)cc2)c(=O)c3=O)cc1 |
| 1170 | Cc1nn2c(ncc3c(=O)n(-c4nccs4)ccc32)c1-c1ccccc1 |
| 1170 | CC(CCc1ccccc1)NC(=O)c1cc2sc(Cl)cc2n1C (stereo unspecified) |
| 1030 | O=C(CCc1nc(CSc2nc3ccccc3o2)no1)Nc1nc(-c2ccccc2)cs1 |
| 803 | CC(NC(=O)C1CCN(c2cnn(Cc3ccccc3)c(=O)c2)CC1)c1ccccc1 (stereo unspecified) |
| 1110 | O=C(Cn1cnc2c(sc3nc(-c4ccccc4)ccc32)c1=O)Nc1ccc(F)c(Cl)c1 |
| 1160 | O=c1c2sccc2n(Cc2nc(-c3ccc(F)cc3)no2)c(=O)n1Cc1ccccc1Cl |
| 704 | COc1ccc(Cn2c(C)c(CNCCc3ccco3)c(C(=O)O)c2C)cc1 |
| 682 | O=C(CC1CCN(C(=O)c2ccc3oc(-c4ccccc4)nc3c2)CC1)N1CCOCC1 |

| RP-LC retention time [s] | Compound |
| --- | --- |
| 706 | COCCCNC(=O)Cn1nc(C)c2sc(-c3ccccc3)nc2c1=O |
| 901 | Cc1ccc(-n2nc(N3CCCC(C(=O)NCc4ccccc4)C3)ccc2=O)cc1Cl (stereo unspecified) |
| 715 | O=C(NCCc1ccccc1)N1CCC(c2noc(-c3cnccn3)n2)C1 (stereo unspecified) |
| 873 | Cc1ccc(-c2cn3ccn(-c4ccc(F)cc4)c(=O)c3n2)c(C)c1 |
| 1280 | COC(=O)c1ccc(Cl)cc1NC(=O)c1cc2ccccc2o1 |
| 946 | COc1cc2c(cc1OC)C(C(=O)NCc1ccc(C)o1)C1c3ccccc3CCN1C2=O (stereo unspecified) |
| 652 | O=C(Cc1nc(-c2ccccn2)n[nH]1)Nc1ccc(F)cc1F |
| 909 | COc1ccc(-c2noc(CC3CCN(C(=O)c4cncc(Br)c4)CC3)n2)cc1 |
| 709 | COc1ccc(CCC(=O)N2CCN(c3nnc4ccc(C(F)(F)F)cn34)CC2)cc1 |
| 577 | c1ccc2c(CCNc3ncnc4nc[nH]c34)c[nH]c2c1 |
| 638 | CC(NC(=O)Cc1ccccc1F)C(=O)Nc1nc2ccccc2[nH]1 (stereo unspecified) |
| 824 | CC(Oc1ccccc1)C(=O)NCc1nnnn1-c1ccc(Cl)cc1 (stereo unspecified) |
| 710 | COc1ccc(CNc2nc3ccncc3n(Cc3ccccc3)c2=O)cc1 |
| 1070 | O=C1COc2ccccc2N1Cc1nc(-c2ccc(Cl)cc2)no1 |
| 1010 | Cc1ccccc1-c1nnc(COc2ccc(NC(=O)c3sccc3C)cc2)o1 |
| 750 | COc1ccccc1CNC(=O)CCc1nnc2c3cc(-c4ccccc4)nn3ccn12 |
| 773 | COc1ccc(S(=O)(=O)N2CCCC(Cn3cnc4cccnc43)C2)cc1OC (stereo unspecified) |
| 792 | COc1ccc(-c2csc(NCCc3ccc(OC)c(OC)c3)n2)cc1 |
| 1160 | O=C(NC1CCc2ccccc21)C1CCN(c2ncccc2-c2nc(-c3cccc(F)c3)no2)CC1 (stereo unspecified) |
| 780 | CCN1C(=O)c2cccnc2Sc2cc(C(=O)NCc3ccccc3)ccc21 |
